The record followed here is ChEMBL document CHEMBL4622954, “Structural manipulation of aporphines via C10 nitrogenation leads to the identification of new 5-HT7AR ligands” (Bioorg Med Chem, 2020).

Assay [1] deals with T1, D(2) dopamine receptor (Homo sapiens, UniProt P14416). The note with it: fibroblast.
The target in assay [2] is T2, D(1A) dopamine receptor (Homo sapiens, UniProt P21728). In words: Displacement of [3H]-SCH23390 from human dopamine D1 receptor expressed in HEKT cells incubated for 90 mins by microbeta counting method.
Assay [3] concerns the target T3, 5-hydroxytryptamine receptor 7 (Homo sapiens, UniProt P34969). The experiment in a line: biochemical.
Description: Displacement of [3H]-LSD from human 5-HT7A receptor expresssed in stable HEK cell membrane incubated for 90 mins by microbeta counting method
Assay [4] has as its target D(3) dopamine receptor (Homo sapiens, UniProt P35462).
Description: Displacement of [3H]-N-Methylspiperone from dopamine D3 receptor (unknown origin) incubated for 90 mins by microbeta counting method
The target of assay [5] is D(1B) dopamine receptor (Homo sapiens, UniProt P21918). In words: Binding affinity to human dopamine D5 receptor expressed in HEKT cells incubated for 90 mins by microbeta counting method. The format is cell-based.
Assay [6] has as its target T4, 5-hydroxytryptamine receptor 6 (Homo sapiens, UniProt P50406).
The target of assay [7] is T2, D(1A) dopamine receptor.
Assay [8] has as its target T5, D(4) dopamine receptor (Homo sapiens) (UniProt P21917).
T5 sequence (whole entry): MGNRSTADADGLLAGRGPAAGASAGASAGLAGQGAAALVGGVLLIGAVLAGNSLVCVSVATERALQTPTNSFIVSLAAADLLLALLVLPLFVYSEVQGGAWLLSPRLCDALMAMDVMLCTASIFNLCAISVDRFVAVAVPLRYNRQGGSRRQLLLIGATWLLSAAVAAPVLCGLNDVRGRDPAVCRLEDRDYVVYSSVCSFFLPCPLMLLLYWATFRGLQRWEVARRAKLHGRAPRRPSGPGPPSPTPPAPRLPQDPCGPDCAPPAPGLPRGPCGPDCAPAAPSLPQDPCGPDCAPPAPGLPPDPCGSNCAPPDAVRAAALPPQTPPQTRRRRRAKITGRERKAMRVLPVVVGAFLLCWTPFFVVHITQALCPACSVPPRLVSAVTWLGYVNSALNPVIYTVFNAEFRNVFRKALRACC
The experiment in a line: (§1) Displacement of [3H]-N-Methylspiperone from human dopamine D4 receptor expressed in stable HEK cells incubated for 90 mins by microbeta counting method. The format is cell-based.

Assay [9] deals with T6, D(4) dopamine receptor (Homo sapiens, UniProt P21917).
T6 sequence (P21917 whole entry): T5 sequence (whole entry)
The description is as §1. The format is cell-based.

The species named for assay [10] is Homo sapiens. In words: Selectivity index, ratio of Ki for human 5-HT7A receptor expressed in stable HEK cell membrane to Ki for human 5-HT1A receptor expresssed in stable CHO cell membrane incubated for 90 mins by microbeta counting method. The format is cell-based.
Assay [11] has as its target T7, 5-hydroxytryptamine receptor 1A (Homo sapiens, UniProt P08908).
T7 sequence (P08908 whole entry): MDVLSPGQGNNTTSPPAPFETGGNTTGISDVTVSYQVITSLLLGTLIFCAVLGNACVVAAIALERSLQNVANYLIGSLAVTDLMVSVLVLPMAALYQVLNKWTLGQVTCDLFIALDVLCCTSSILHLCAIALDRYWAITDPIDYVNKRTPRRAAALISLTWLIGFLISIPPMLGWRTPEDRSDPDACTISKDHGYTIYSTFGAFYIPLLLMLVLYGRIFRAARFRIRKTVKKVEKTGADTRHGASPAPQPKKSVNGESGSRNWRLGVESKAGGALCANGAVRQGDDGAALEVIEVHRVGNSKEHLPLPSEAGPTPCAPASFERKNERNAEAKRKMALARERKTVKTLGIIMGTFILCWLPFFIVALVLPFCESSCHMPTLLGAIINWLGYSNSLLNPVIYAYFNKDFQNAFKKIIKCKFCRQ
In words: biochemical.
Description: Displacement of [3H]-WAY100635 from human 5-HT1A receptor expresssed in stable CHO cell membrane incubated for 90 mins by microbeta counting method

For assay [12], the target named is T1, D(2) dopamine receptor. The experiment in a line: Displacement of [3H]-N-Methylspiperone from human dopamine D2 receptor expressed in stable fibroblast cells incubated for 90 mins by microbeta counting method.
Assay [13] deals with T4, 5-hydroxytryptamine receptor 6. In words: Displacement of [3H]-LSD from human 5-HT6 receptor expresssed in stable HEK cell membrane incubated for 90 mins by microbeta counting method.
In assay [14] the target is 5-hydroxytryptamine receptor 2A (Homo sapiens, UniProt P28223).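 Further: [3H]-Ketanserin displacement from the 5-HT2A receptor after 90 min incubation, with bound label read by MicroBeta counting.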
Description: Displacement of [3H]-Ketanserin from 5-HT2A receptor (unknown origin) incubated for 90 mins by microbeta counting method
Assay [15] concerns the target T1, D(2) dopamine receptor. The experiment in a line: biochemical.
In assay [16] the target is T2, D(1A) dopamine receptor. The experiment in a line: biochemical.
Assay [17] has as its target T3, 5-hydroxytryptamine receptor 7. In words: Antagonist activity at human recombinant 5-HT7 receptor expressed in CHOK1 Hunter cell preincubated for 30 mins followed by incubation with agonist for 30 to 60 mins by hit-hunter cAMP assay based chemiluminescence analysis. The format is functional, CHO-K1.

Where a name gives a salt, the structure may show the parent alone.

T1 sequence (P14416 whole entry): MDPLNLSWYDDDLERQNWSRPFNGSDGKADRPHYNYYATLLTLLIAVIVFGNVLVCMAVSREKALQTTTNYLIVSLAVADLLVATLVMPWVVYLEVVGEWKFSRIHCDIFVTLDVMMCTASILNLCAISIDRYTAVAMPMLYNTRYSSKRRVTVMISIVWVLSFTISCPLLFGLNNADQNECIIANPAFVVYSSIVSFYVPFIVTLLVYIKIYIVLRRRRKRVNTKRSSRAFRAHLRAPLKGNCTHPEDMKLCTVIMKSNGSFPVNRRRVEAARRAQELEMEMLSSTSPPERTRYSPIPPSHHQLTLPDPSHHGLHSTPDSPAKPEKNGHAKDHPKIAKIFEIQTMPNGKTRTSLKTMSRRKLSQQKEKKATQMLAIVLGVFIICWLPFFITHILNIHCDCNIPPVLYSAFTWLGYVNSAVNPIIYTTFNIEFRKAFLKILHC
T2 sequence (P21728 whole entry): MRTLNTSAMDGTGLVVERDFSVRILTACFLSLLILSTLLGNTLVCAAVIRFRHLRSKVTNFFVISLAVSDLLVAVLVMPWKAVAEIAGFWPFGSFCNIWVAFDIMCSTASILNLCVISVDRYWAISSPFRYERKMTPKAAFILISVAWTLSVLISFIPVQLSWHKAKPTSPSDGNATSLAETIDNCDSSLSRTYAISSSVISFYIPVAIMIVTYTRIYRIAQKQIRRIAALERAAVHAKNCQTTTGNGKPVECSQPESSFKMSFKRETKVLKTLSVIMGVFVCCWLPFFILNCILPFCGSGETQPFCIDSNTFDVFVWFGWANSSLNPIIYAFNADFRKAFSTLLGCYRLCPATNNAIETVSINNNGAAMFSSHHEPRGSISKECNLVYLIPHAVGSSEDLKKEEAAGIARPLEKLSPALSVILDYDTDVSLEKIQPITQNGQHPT
T4 sequence (P50406 whole entry): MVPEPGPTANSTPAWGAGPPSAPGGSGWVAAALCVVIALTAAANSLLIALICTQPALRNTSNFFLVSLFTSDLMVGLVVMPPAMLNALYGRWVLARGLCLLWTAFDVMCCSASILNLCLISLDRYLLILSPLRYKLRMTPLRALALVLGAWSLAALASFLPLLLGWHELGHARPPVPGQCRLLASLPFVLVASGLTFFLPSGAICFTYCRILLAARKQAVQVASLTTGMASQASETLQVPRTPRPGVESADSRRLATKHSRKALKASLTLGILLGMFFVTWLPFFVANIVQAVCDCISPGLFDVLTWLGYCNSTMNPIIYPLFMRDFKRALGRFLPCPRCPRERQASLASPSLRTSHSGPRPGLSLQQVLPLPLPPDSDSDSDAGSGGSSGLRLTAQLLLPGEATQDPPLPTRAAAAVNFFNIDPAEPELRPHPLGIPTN
T3 sequence (P34969 whole entry): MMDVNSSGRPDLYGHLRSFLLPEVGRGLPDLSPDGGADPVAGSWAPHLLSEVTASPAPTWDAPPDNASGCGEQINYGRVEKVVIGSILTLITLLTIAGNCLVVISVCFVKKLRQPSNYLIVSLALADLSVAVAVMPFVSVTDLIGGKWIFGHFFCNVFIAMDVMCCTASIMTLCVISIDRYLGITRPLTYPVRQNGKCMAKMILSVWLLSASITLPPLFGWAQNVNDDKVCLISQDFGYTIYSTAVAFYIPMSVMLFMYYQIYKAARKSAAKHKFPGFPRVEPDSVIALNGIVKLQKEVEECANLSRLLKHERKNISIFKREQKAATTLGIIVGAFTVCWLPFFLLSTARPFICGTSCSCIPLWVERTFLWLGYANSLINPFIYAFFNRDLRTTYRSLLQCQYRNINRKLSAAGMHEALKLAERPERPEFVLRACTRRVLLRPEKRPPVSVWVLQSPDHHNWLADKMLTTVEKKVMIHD
D(1B) dopamine receptor, sequence (P21918 whole entry): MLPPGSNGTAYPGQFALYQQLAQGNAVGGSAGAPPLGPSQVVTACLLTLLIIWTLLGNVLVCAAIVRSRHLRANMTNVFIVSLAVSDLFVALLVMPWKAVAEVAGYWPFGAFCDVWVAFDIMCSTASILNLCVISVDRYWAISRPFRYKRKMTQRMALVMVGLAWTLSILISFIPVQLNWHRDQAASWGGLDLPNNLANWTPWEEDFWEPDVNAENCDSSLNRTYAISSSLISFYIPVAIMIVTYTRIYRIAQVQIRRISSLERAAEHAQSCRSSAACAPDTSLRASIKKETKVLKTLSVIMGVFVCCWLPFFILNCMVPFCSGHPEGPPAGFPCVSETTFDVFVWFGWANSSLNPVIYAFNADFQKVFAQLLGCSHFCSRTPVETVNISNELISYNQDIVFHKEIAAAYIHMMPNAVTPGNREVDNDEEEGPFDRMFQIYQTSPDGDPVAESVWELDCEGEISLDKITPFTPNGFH
5-hydroxytryptamine receptor 2A, sequence (P28223 whole entry): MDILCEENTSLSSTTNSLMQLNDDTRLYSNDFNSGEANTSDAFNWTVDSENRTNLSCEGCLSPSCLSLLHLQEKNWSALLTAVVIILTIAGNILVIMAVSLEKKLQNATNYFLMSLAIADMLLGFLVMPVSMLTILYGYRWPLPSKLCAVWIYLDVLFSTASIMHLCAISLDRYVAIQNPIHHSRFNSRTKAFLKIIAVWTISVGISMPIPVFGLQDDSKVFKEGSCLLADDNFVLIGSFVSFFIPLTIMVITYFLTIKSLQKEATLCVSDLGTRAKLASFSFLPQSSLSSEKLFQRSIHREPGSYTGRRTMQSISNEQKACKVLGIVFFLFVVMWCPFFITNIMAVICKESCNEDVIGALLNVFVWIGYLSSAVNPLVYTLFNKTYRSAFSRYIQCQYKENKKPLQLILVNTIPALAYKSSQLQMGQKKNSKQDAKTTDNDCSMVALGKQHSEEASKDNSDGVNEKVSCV
D(3) dopamine receptor, sequence (P35462 whole entry): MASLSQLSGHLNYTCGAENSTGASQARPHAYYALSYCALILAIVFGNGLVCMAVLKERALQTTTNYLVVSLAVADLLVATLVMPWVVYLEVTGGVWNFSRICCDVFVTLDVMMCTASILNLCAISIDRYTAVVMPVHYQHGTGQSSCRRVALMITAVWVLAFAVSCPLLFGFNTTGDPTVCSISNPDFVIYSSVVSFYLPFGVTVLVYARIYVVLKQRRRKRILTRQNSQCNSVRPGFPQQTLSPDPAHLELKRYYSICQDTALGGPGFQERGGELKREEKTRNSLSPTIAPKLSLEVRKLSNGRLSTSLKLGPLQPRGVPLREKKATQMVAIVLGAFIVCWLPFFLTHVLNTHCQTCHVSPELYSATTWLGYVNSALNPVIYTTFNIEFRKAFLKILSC

`CCCN1CCc2cccc3c2C1Cc1cc2sc(N)nc2cc1-3` (racemic): the Ki entry in assay [1] is “Not Active”; in [3], 0.132 µM; in assay [4], 2.11 µM; in assay [5], “Not Active”; in [6], “Not Active”; in [7] it was “Not Active”. For the same compound, the Ki result in assay [9] is “Not Active”; in assay [11], 0.0075 µM; in [14], “Not Active”. The inhibition in [2], in assay [5], in assay [8], in assay [12] and in assay [13] was below 50% throughout. Further, the Ratio Ki in assay [10] came to 17.

For `CN1CCc2cccc3c2C1Cc1ccc2nc(N)sc2c1-3` (racemic), the Ki was 1.74 µM in assay [15]; 1.15 µM in assay [16]; 0.0099 µM in assay [3]; 0.381 µM in assay [4]; “Not Active” in assay [5]; “Not Active” in [6]. The Ki in [9] (read-out: Ki) was 0.481 µM; in assay [11], 0.187 µM; in assay [14] (read-out: Ki), 1.04 µM. Further, the inhibition in assay [5] and in [13] was below 50% each time.

As to `O=C(CCCN1CCC2(CC1)C(=O)NCN2c1ccccc1)c1ccc(F)cc1` [SPIPERONE HYDROCHLORIDE], the IC50 in assay [17] came to 0.31 µM.
